Source: a melting point compilation (Tetko et al.; mined from patent text by program, amines drawn as free bases though some values may be those of a salt)

Compound `CCOC(=O)c1cc(=O)c2c(OCC(O)COc3ccc(C(C)(C)C)cc3)cccc2o1` (stereo not given) has a melting point of 99 to 102 °C.
With `CCOC(=O)C1=NN(c2cccc(Cl)c2)C(c2ccccc2)CC1` (stereo not given) the melting point was 125 to 126 °C.
Compound `CC(C)n1nc(-c2sc(NC(=O)CN(C)CCN(C)C)nc2-c2ccccc2)ccc1=O` has a melting point of 155 to 157 °C.
For `COC(=O)C(CSC(=O)c1ccccc1)NC(=O)C(=O)NC(CSC(=O)c1ccccc1)C(=O)OC` (stereo not given), the melting point was 185 to 186 °C.
`ON=C(c1ccncc1)c1ccc(F)cc1F` showed a melting point of 155 to 200 °C.
For `COc1ccc(OCc2ccccc2)c2c1OCCO2`, the melting point was 70 °C.
`CN(C(N)=O)C1CCCc2sccc21` (stereo not given) showed a melting point of 152 to 154 °C.
Work on `N#CC1(c2ccc(F)cc2)CCC(N2CCN(c3cccnn3)CC2)CC1` (stereo not given) yielded a melting point of 189 °C.
In the case of `COC(=O)C(CO)NS(=O)(=O)c1ccc(OC)cc1` (stereo not given), the melting point is reported as 92 to 94 °C.
With `CC(C)Oc1ccc(CCN2CCC3(CC2)CNC(=O)CO3)cc1` the melting point was 135 to 137 °C.
`COC(=O)COc1ccc2cc(-c3ccc(-c4ccccc4)n3Cc3ccccc3)ccc2c1` gave a melting point of 101 to 102 °C.
With `CC(C)c1ccc2c(c1)C(c1ccc(Cl)c(Cl)c1)Cc1cnc(N)nc1-2` (stereo not given) the melting point was 174 to 176 °C.
`CCc1nccn1-c1ccc(NC(=O)NC)cc1` showed a melting point of 228 to 232 °C.
With `Nc1nc2ccc(CO)cc2o1` the melting point was 148 to 150 °C.
For `Nc1sc2c(c1C(=O)c1cccc(C(F)(F)F)c1)CCN(CCc1ccccc1)C2`, the melting point was 137 to 138 °C.
Compound `Cc1ccc(Sc2nc(F)c(C#N)cc2F)cc1` has a melting point of 120 to 121 °C.
Work on `O=S1(=O)c2ccccc2Cc2ccc(-c3nnn[nH]3)cc21` yielded a melting point of 233 °C.
Work on `CC(=O)N1CCC(C(=O)Nc2ccccc2Oc2ccc(Cl)cc2Cl)CC1` yielded a melting point of 194 to 196 °C.
In the case of `CCOc1ccc(-c2ccc(-c3ccc(C4CCC(c5c(F)cccc5F)=N4)cc3)cc2)s1` (stereo not given), the melting point is reported as 128 to 134 °C.
In the case of `CCC(=O)c1cc(C2(c3cccc(-c4cccnc4F)c3)N=C(N)N(C)C2=O)cn1CC(F)(F)F` (stereo not given), the melting point is reported as 108 to 110 °C.
Work on `COc1ccccc1N=C(C)CC(=O)C(F)(F)F` yielded a melting point of 40 °C.
`CN1CCN(c2cccc3ccc(-c4cccc(NS(C)(=O)=O)c4)cc23)CC1` showed a melting point of 100 to 101 °C.
In the case of `CCC(CC)c1nn(-c2ccc(C(F)(F)F)cn2)cc1CCCOc1c(CC(=O)O)ccnc1C`, the melting point is reported as 78 to 79 °C.
With `CCOc1c(Cl)cc(C(C)(C)N2CC(C)=C(c3ccccc3)C2=O)cc1Cl` the melting point was 133 to 135 °C.
In the case of `CNC(=O)c1cccc(NCC(=O)NCCc2ccc(OC)c(OC)c2)c1`, the melting point is reported as 93 to 96.5 °C.
`Cc1ccc(-c2csc(/C=C/C(=O)O)c2)cc1` showed a melting point of 206 to 207 °C.
`COc1cc(OC)c2c3c(oc2c1)CC(C(=O)O)CC3` (stereo not given) showed a melting point of 194 to 196 °C.
Compound `NC(=O)C1CCN(c2cc(-c3ccc(Cl)cc3)nc3ccc(Cl)cc23)CC1` has a melting point of 272 to 275 °C.
For `CN1CC(C(=O)c2nc(Cc3ccc(F)cc3)co2)=C(O)C1=O`, the melting point was 209 to 210 °C.
Compound `Cc1c(Cc2ccccc2)c(=O)oc2cc(OCC#N)cc(OCC#N)c12` has a melting point of 147 to 154 °C.
For `Cc1cc(C)cc(-c2[nH]c3ccc(-c4nccs4)cc3c2CCN)c1`, the melting point was 98.5 to 100 °C.
Work on `Cc1c(Cl)ccc(OC(C)C(=O)O)c1Cl` (stereo not given) yielded a melting point of 150 °C.
`COc1ccc2c(c1)C(NC(C)C)=C(C(N)=O)S2=O` (stereo not given) showed a melting point of 194 °C.
Work on `Cc1nc2c(s1)-c1nc(N(C)c3cccc([N+](=O)[O-])c3)ncc1CC2` yielded a melting point of 203 to 204 °C.
For `CCOC(=O)c1cc2n(C)c3ccc(Cl)cc3c(=O)n2n1`, the melting point was 272 to 274 °C.
With `Cc1ccc([C@H]2Sc3cc(C)ccc3NC(=O)[C@H]2O)cc1` the melting point was 212 to 214 °C.
Compound `CCC(O)CCCOc1ccccc1Oc1ccccc1OCCCC(O)CC` (stereo not given) has a melting point of 119 °C.
`COc1cc(C)c2c(Cl)c(OC)cc([N+](=O)[O-])c2n1` gave a melting point of 199 to 200 °C.
For `CCN(CC)CC1CCCCN1CC(=O)N1c2ccccc2NC(=O)c2ccccc21` (stereo not given), the melting point was 171 to 172 °C.
`CO[C@@H]1CN(CCC#N)CC[C@@H]1NC(=O)c1cc(Cl)c(N)c2c1OCC2` (relative stereo) showed a melting point of 191 °C.
Compound `CC(C)(C)COC1CCC(=O)N1` (stereo not given) has a melting point of 45 °C.
In the case of `Cc1ccc(-c2nc3cc([N+](=O)[O-])ccc3o2)s1`, the melting point is reported as 163 to 165 °C.
`O=C(O)c1cc2ccc(OCc3ccccc3)cc2oc1=O` gave a melting point of 196 to 197 °C.
For `CN1CCC(C2=CC(=O)CCC2)C1=O` (stereo not given), the melting point was 42 to 46 °C.
For `Clc1nc(N2CCOCC2)c2ccccc2n1`, the melting point was 103 to 105 °C.
Work on `CNC(=O)N1CC(Oc2cccc(C(N)=O)c2)C1` yielded a melting point of 238 to 240 °C.
`CC(=O)OC1CSC(Oc2cnccc2C)C(OC(C)=O)C1OC(C)=O` (stereo not given) gave a melting point of 150 °C.
With `Cc1c2cccccc-2c(-c2ccccc2)c1-c1ccc(S(C)(=O)=O)cc1` the melting point was 165 to 167 °C.
`O=C(Oc1ccccc1)N1CC[C@@H](c2ccc(F)cc2)[C@H](CO)C1` (relative stereo) gave a melting point of 129 to 131 °C.
Work on `Cc1c(CCN(C)C(=O)OC(C)(C)C)c2cc(S(=O)(=O)c3ccc(C(F)(F)F)cc3)ccc2n1C` yielded a melting point of 141 to 144 °C.
`CC(=O)Nc1ccc(-c2ccc3nc(-c4cccnc4N)n(-c4ccc(CNC(=O)c5ccccc5)cc4)c3n2)cc1` gave a melting point of 299 to 300 °C.
`O=C(O)c1cccc(-c2cccc3sc(Cc4cccc(C(F)(F)F)c4)nc23)c1` showed a melting point of 152 to 153 °C.
Work on `CC(C)N(Cc1ccc2cc(NC(=O)c3ccc(-c4ccc(Cl)cc4)cc3)ccc2c1)C(C)C` yielded a melting point of 246 to 250 °C.
With `Cn1c2ccc(Br)cc2c2cc(Br)cc([N+](=O)[O-])c21` the melting point was 221 °C.
Work on `CCOC(=O)c1cc(Br)cc2c(=O)cc(-c3cccc(OCc4nc5ccccc5s4)c3)oc12` yielded a melting point of 250 to 251 °C.
Compound `CCOC(=O)c1ccc(C(=O)CC(O)(c2cc(Cl)cc(Cl)c2)C(F)(F)F)cc1C` (stereo not given) has a melting point of 72 to 74 °C.
`COc1ccc(CNc2nc(-c3ccc(C(=O)O)cc3)nc3c2c2c(n3C(C)c3ccccc3)CCCC2)cc1Cl` (stereo not given) showed a melting point of 179 °C.
`COc1ccc(C2C(C(=O)O)C2(C)C)cc1` (stereo not given) showed a melting point of 115 °C.
`c1ccc(CN2CCC(Oc3ccccn3)CC2)cc1` gave a melting point of 75 °C.
`Nc1nc(Cl)cc(C#Cc2ccc3c(C(=O)Nc4cccc(C(F)(F)F)c4)cccc3c2)n1` gave a melting point of 171 to 175 °C.
`N#Cc1cncc(-c2ccc3c(c2)C2(CCCCC2)C(=O)N3)c1` showed a melting point of 232 to 234 °C.
For `CCOC(=O)C1=C(C)NN=C(CC)C1c1ccccc1C(F)(F)F` (stereo not given), the melting point was 124 °C.
For `COc1cc2c(cc1OCc1ccccc1)C(C1(c3ccccc3OC)CC1)N(C)CC2` (stereo not given), the melting point was 118 °C.
`CC(=O)c1cc(OCc2ccccc2)cc2c1OC(C)(C)C(=O)N2` showed a melting point of 148 to 150 °C.
For `N#CCc1coc2ccc(Br)cc12`, the melting point was 120 °C.
Compound `CCOC(=O)C(C)C(NC(C)=O)C(C(C)=O)C(=O)OC` (stereo not given) has a melting point of 93 to 96 °C.
Work on `O=C1CCCC(=O)N1c1cc(Cc2n[nH]c(=O)c3ccccc23)ccc1F` yielded a melting point of 259 to 263 °C.
With `COc1cccc2c1CCNC2=S` the melting point was 44 to 46 °C.
Work on `O=C(Cn1c(=O)n(S(=O)(=O)c2ccc(Cl)cc2)c(=O)c2ccc(Cl)cc21)Nc1ccccc1` yielded a melting point of 217 to 218 °C.
`CC(=O)OC1CSC(Oc2cccnc2-c2c(C)noc2C)C(OC(C)=O)C1OC(C)=O` (stereo not given) showed a melting point of 68 to 72 °C.
Compound `Cc1nc(-c2ccccc2)nc(-c2cccc([N+](=O)[O-])c2)c1C(=O)N1CCN(C)CC1` has a melting point of 153 to 155 °C.
In the case of `O=C1NCCc2[nH]c3c(Br)cccc3c21`, the melting point is reported as 268 to 270 °C.
Work on `COc1ccc(Cc2nc3cc(Cl)cc(CC(N)=O)c3o2)cc1OC1CCCC1` yielded a melting point of 162 to 164 °C.
Compound `CC1(C)OC(=O)N(Cc2ccccc2[N+](=O)[O-])C1O` (stereo not given) has a melting point of 119 to 120 °C.
For `CC(C)(C)OC(=O)NC1(CCN2C(=O)c3ccccc3C2=O)CC1`, the melting point was 125 to 127 °C.
`Cc1cccc(NC(=O)NC2CN(C(=O)C3CC3)c3ccccc3N(CC(=O)c3ccccc3C)C2=O)c1` (stereo not given) gave a melting point of 207 to 209 °C.
Compound `Clc1nccnc1SN=Cc1ccccc1` has a melting point of 93 to 94 °C.
`COC(=O)c1ccccc1OCC(O)CNCCNC(=O)C(C)C` (stereo not given) showed a melting point of 128 to 129 °C.
`CCOCc1nc2c(N)nc(C)c(C)c2n1CCC1CCN(C(=O)N2CCOCC2)CC1` gave a melting point of 158 to 160 °C.
In the case of `CN(C(=O)c1nn(-c2ccc(Cl)cc2Cl)c(-c2ccc(Cl)cc2)c1F)N1CCCCC1`, the melting point is reported as 184 °C.
In the case of `C/C(=C\c1ccc(CO)cc1)c1ccc2c(c1)C(C)(C)CCO2`, the melting point is reported as 80 to 81 °C.
For `Cc1ccc(C(=O)CCc2ccc(N)cc2)cc1`, the melting point was 59 to 61 °C.
`Oc1ccc(OCc2nnc(C3CC3)s2)cc1` gave a melting point of 79 to 83 °C.
`CCc1ccccc1NC(=O)c1ccc(CN2C(=O)C3(COc4cc5c(cc43)CCO5)c3ccccc32)cc1` (stereo not given) showed a melting point of 203 to 204 °C.
`CC1(C)CN(c2ncc(C(=O)N(CC3CC3)c3cc(C(F)(F)F)ccc3F)c(N)n2)C(=O)N1` gave a melting point of 188 to 189 °C.
`CC(=O)c1ccc(S(=O)(=O)NCCCn2ccnc2)cc1` showed a melting point of 142 to 144 °C.
For `CCCc1cc(F)c(C(=O)O)cc1O`, the melting point was 134 to 136 °C.
`COC(=O)c1ccc(C(=O)NS(=O)(=O)c2ccc(CCNC(=O)COc3ccccc3)cc2)cn1` gave a melting point of 201 to 203 °C.
`COc1cc(C)c(C(=O)c2c(F)ncc(C)c2I)c(OC)c1OC` gave a melting point of 140 to 141 °C.
`C=C(C)[C@@H]1CC[C@](C)(O)[C@@H](n2ccnc2)C1` showed a melting point of 126 to 128 °C.
Work on `Cc1ccc2nc([C@@H](C)NC(=O)OC(C)(C)C)sc2c1` yielded a melting point of 101 to 104 °C.
With `NC(=O)N(O)C1C=C(c2cccc(Oc3ccccc3)c2)CC1` (single isomer, unassigned; (+)) the melting point was 139 to 141 °C.
With `O=C(O)CCCCCC=C(c1ccccc1)c1ccccc1` the melting point was 88 to 89 °C.
`CC(C)n1nc(O)nc1N1CCCC1` gave a melting point of 123 to 125 °C.
With `Oc1ccc(Cl)cc1C(O)(C1CCCCC1)C1CCCCC1` the melting point was 230 °C.
With `CC1CC2=CC(=O)CCC2C2CCC3(C)C(C(F)F)CCC3C12` (stereo not given) the melting point was 131 to 135 °C.
`CSC1C(=O)Nc2ccc(Oc3ccc(C(F)(F)F)c(Cl)c3)cc21` (stereo not given) gave a melting point of 174 to 178 °C.
Compound `COc1ccc(CCc2ccc(C(=O)O)cc2)cc1OC(C)CCCc1ccccc1` (stereo not given) has a melting point of 112 °C.
Compound `CCCN(CCC)CC1CCCCN1CCNC(=O)N1c2ccccc2NC(=O)c2c1ccn2C` (stereo not given) has a melting point of 153 to 155 °C.
In the case of `CN1CCN(c2cc3c(Br)cccc3c(=O)[nH]2)CC1`, the melting point is reported as 240 to 241 °C.
